Laboratory results reported in PMC4114533, “Synthesis, Anti-tubulin and Antiproliferative SAR of Steroidomimetic Dihydroisoquinolinones” (Chemmedchem, 2014).

Key:
[1] = system: MDA MB-231 human breast cancer cells; assay: Antiproliferative assay (WST-1, 96 h), MDA MB-231; type: cell-based; conditions: MDA MB-231 cells, WST-1, mean of three determinations
Method: (§1) Cell lines: DU-145 (brain metastasis carcinoma of the prostate) and MDA MB-231 (metastatic pleural effusion of breast adenocarcinoma) established human cell lines were obtained from ATCC Global Bioresource Center. Cells were maintained in a 5 % CO2 humidified atmosphere at 37 °C in RPMI-1640 medium, supplemented with 10 % fetal bovine serum, penicillin, (100 U mL^−1), and streptomycin (0.1 mg mL^−1). The effect of drugs on tubule formation was assessed using an angiogenesis kit (TCS-Cellworks).
(§2) Antiproliferative assays: DU-145 and MDA MB-231 cells were seeded into 96-well microtitre plates (5000 cells per well) and treated with compound (10^−9–10^−4 M) or with vehicle control. At 96 h post-treatment, live cell counts were determined by WST-1 cell proliferation assay (Roche, Penzberg, Germany), as per the manufacturer’s instructions. Viability results were expressed as a percentage of mean control values resulting in the calculation of the 50 % growth inhibition (GI50). All experiments were performed in triplicate.

[2] = system: DU-145 human prostate cancer cells; assay: Antiproliferative assay (WST-1, 96 h), DU-145; type: cell-based; conditions: for GI50: Homo sapiens, DU-145 cells, 96 h, WST-1, mean of three determinations; for antiproliferative activity (in words): in vitro antiproliferative activity, result in words
Method: as §1, §2

| SMILES | GI50 [1] | GI50 [2] | melting point | antiproliferative activity (in words) [2] |
| --- | --- | --- | --- | --- |
| COc1cc2c(cc1O)CCN(C(=O)c1cccc(C#N)c1)C2=O [16 c, 2-(3-Cyanobenzoyl)-6-hydroxy-7-methoxy-3,4-dihydroisoquinolin-1(2H)-one] | 37.4 µM | 70 µM | – | – |
| COc1ccc(C(=O)N2CCc3cc(OS(N)(=O)=O)c(OC)cc3C2=O)cc1 [17 d, 2-(4-Methoxybenzoyl)-7-methoxy-6-sulfamoyloxy-3,4-dihydroisoquinolin-1(2H)-one] | – | > 100 µM | 171 to 172 °C | inactive |
| COc1ccc(S(=O)(=O)N2CCc3cc(OS(N)(=O)=O)c(OC)cc3C2=O)cc1 [12 c, 7-Methoxy-2-((4-methoxyphenyl)sulfonyl)-6-(sulfamoyloxy)-3,4-dihydroisoquinolin-1(2H)-one] | > 100 µM | > 100 µM | – | – |
| COc1ccc(CN2CCc3cc(O)c(OC)cc3C2=O)cc1 [8 c, 6-Hydroxy-7-methoxy-2-(4-methoxybenzyl)-3,4-dihydroisoquinolin-1(2H)-one] | – | > 100 µM | 171 to 172 °C | – |
| COc1cc2c(cc1OS(N)(=O)=O)CCN(Cc1cc(OC)c(OC)c(OC)c1)C2=O [9 e, 7-Methoxy-6-sulfamoyloxy-2-(3,4,5-trimethoxybenzyl)-3,4-dihydroisoquinolin-1(2H)-one] | – | > 100 µM | – | – |
| COc1cccc(S(=O)(=O)N2CCc3cc(O)c(OC)cc3C2=O)c1 [11 b, 6-Hydroxy-7-methoxy-2-((3-methoxyphenyl)sulfonyl)-3,4-dihydroisoquinolin-1(2H)-one] | > 100 µM | > 100 µM | – | – |
| COc1ccc(C(=O)N2CCc3cc(OS(N)(=O)=O)c(OC)cc3C2)cc1OC [19 a, 2-(3,4-Dimethoxybenzoyl)-7-methoxy-6-sulfamoyloxy-1,2,3,4-tetrahydroisoquinoline] | – | > 100 µM | – | completely inactive |
| COc1cc(OC)cc(C(=O)N2CCc3cc(O)c(OC)cc3C2)c1 [18 b, 2-(3,5-Dimethoxybenzoyl)-6-hydroxy-7-methoxy-1,2,3,4-tetrahydroisoquinoline] | – | 6.4 µM | – | – |
| COc1cc2c(cc1OCc1ccccc1)CCN(S(=O)(=O)c1cccc(Cl)c1)C2=O [10 d, 6-Benzyloxy-7-methoxy-2-((3-chlorophenyl)sulfonyl)-3,4-dihydroisoquinolin-1(2H)-one] | > 100 µM | > 100 µM | – | – |
| COc1cccc(C(=O)N2CCc3cc(O)c(OC)cc3C2=O)c1 [16 b, 6-Hydroxy-2-(3-methoxybenzoyl)-7-methoxy-3,4-dihydroisoquinolin-1(2H)-one] | 1.89 µM | 3.63 µM | – | – |
| COc1cc2c(cc1O)CCN(Cc1cc(OC)c(OC)c(OC)c1)C2=O [8 e, 6-Hydroxy-7-methoxy-2-(3,4,5-trimethoxybenzyl)-3,4-dihydroisoquinolin-1(2H)-one] | – | > 100 µM | – | – |
| COc1cc2c(cc1OCc1ccccc1)CCN(S(=O)(=O)c1ccccc1OC)C2=O [10 a, 6-Benzyloxy-7-methoxy-2-((2-methoxyphenyl)sulfonyl)-3,4-dihydroisoquinolin-1(2H)-one] | > 100 µM | > 100 µM | – | – |
| COc1cc2c(cc1OCc1ccccc1)CCN(C(=O)c1cc(OC)c(OC)c(OC)c1)C2 [14 g, 6-Benzyloxy-7-methoxy-2-(3,4,5-trimethoxybenzoyl)-1,2,3,4-tetrahydroisoquinoline] | 18.9 µM | 62.7 µM | – | – |
| COc1ccccc1CN1CCc2cc(OS(N)(=O)=O)c(OC)cc2C1=O [9 a, 7-Methoxy-2-(2-methoxybenzyl)-6-sulfamoyloxy-3,4-dihydroisoquinolin-1(2H)-one] | – | > 100 µM | – | – |
| COc1cc2c(cc1OCc1ccccc1)CCN(C(=O)c1ccccc1OC)C2=O [15 a, 6-Benzyloxy-2-(2-methoxybenzoyl)-7-methoxy-3,4-dihydroisoquinolin-1(2H)-one] | 43.6 µM | > 100 µM | – | – |
| COc1cc(CN2CCc3cc(OS(N)(=O)=O)c(OC)cc3C2=O)cc(OC)c1 [9 d, 7-Methoxy-2-(3,5-dimethoxybenzyl)-6-sulfamoyloxy-3,4-dihydroisoquinolin-1(2H)-one] | – | > 100 µM | – | – |
| COc1cccc(CN2CCc3cc(O)c(OC)cc3C2=O)c1 [8 b, 6-Hydroxy-7-methoxy-2-(3-methoxybenzyl)-3,4-dihydroisoquinolin-1(2H)-one] | – | > 100 µM | 181 to 182 °C | – |
| COc1ccc(C(=O)N2CCc3cc(OCc4ccccc4)c(OC)cc3C2=O)cc1 [15 d, 6-Benzyloxy-2-(4-methoxybenzoyl)-7-methoxy-3,4-dihydroisoquinolin-1(2H)-one] | – | > 100 µM | – | – |
| COc1cc2c(cc1OCc1ccccc1)CCN(C(=O)c1cccc(C#N)c1)C2=O [15 c, 6-Benzyloxy-2-(3-cyanobenzoyl)-7-methoxy-3,4-dihydroisoquinolin-1(2H)-one] | > 100 µM | > 100 µM | – | – |

| SMILES | GI50 [1] | GI50 [2] | melting point | antiproliferative activity (in words) [2] |
| --- | --- | --- | --- | --- |
| COc1ccc(C(=O)N2CCc3cc(O)c(OC)cc3C2=O)cc1 [16 d, 6-Hydroxy-2-(4-methoxybenzoyl)-7-methoxy-3,4-dihydroisoquinolin-1(2H)-one] | – | > 100 µM | – | inactive |
| COc1cc(CN2CCc3cc(OCc4ccccc4)c(OC)cc3C2=O)cc(OC)c1 [7 d, 6-Benzyloxy-7-methoxy-2-(3,5-dimethoxybenzyl)-3,4-dihydroisoquinolin-1(2H)-one] | – | > 100 µM | – | – |
| COc1cc(CN2CCc3cc(O)c(OC)cc3C2=O)cc(OC)c1 [8 d, 6-Hydroxy-7-methoxy-2-(3,5-dimethoxybenzyl)-3,4-dihydroisoquinolin-1(2H)-one] | – | > 100 µM | – | – |
| COc1cc2c(cc1OS(N)(=O)=O)CCN(C(=O)c1ccccc1OC)C2=O [17 a, 2-(2-Methoxybenzoyl)-7-methoxy-6-sulfamoyloxy-3,4-dihydroisoquinolin-1(2H)-one] | 7.1 µM | 9.1 µM | – | – |
| COc1cc2c(cc1O)CCN(Cc1ccccc1OC)C2=O [8 a, 6-Hydroxy-7-methoxy-2-(2-methoxybenzyl)-3,4-dihydroisoquinolin-1(2H)-one] | – | > 100 µM | – | – |
| COc1ccc(CN2CCc3cc(OS(N)(=O)=O)c(OC)cc3C2=O)cc1 [9 c, 7-Methoxy-2-(4-methoxybenzyl)-6-sulfamoyloxy-3,4-dihydroisoquinolin-1(2H)-one] | – | > 100 µM | – | – |
| COc1cc(OC)cc(C(=O)N2CCc3cc(OCc4ccccc4)c(OC)cc3C2=O)c1 [15 f, 6-Benzyloxy-2-(3,5-dimethoxybenzoyl)-7-methoxy-3,4-dihydroisoquinolin-1(2H)-one] | – | > 100 µM | – | – |
| COc1ccc(C(=O)N2CCc3cc(OCc4ccccc4)c(OC)cc3C2=O)cc1OC [15 e, 6-Benzyloxy-2-(3,4-dimethoxybenzoyl)-7-methoxy-3,4-dihydroisoquinolin-1(2H)-one] | – | > 100 µM | – | – |
| COc1cc2c(cc1O)CCN(C(=O)c1ccc(OC)c(OC)c1)C2 [18 a, 2-(3,4-Dimethoxybenzoyl)-6-hydroxy-7-methoxy-1,2,3,4-tetrahydroisoquinoline] | – | > 100 µM | – | completely inactive |
| COc1ccc(C(=O)N2CCc3cc(OCc4ccccc4)c(OC)cc3C2)cc1OC [14 e, 6-Benzyloxy-2-(3,4-dimethoxybenzoyl)-7-methoxy-1,2,3,4-tetra-hydroisoquinoline] | – | 26.7 µM | – | – |
| COc1cccc(S(=O)(=O)N2CCc3cc(OCc4ccccc4)c(OC)cc3C2=O)c1 [10 b, 6-Benzyloxy-7-methoxy-2-((3-methoxyphenyl)sulfonyl)-3,4-dihydroisoquinolin-1(2H)-one] | > 100 µM | > 100 µM | – | – |
| COc1cc2c(cc1O)CCN(C(=O)c1ccccc1OC)C2=O [16 a, 6-Hydroxy-2-(2-methoxybenzoyl)-7-methoxy-3,4-dihydroisoquinolin-1(2H)-one] | 5.6 µM | 6.42 µM | – | – |
| COc1cc2c(cc1OCc1ccccc1)CCN(Cc1cc(OC)c(OC)c(OC)c1)C2=O [7 e, 6-Benzyloxy-7-methoxy-2-(3,4,5-trimethoxybenzyl)-3,4-dihydroisoquinolin-1(2H)-one] | – | > 100 µM | – | – |
| COc1cc2c(cc1OCc1ccccc1)CCN(C(=O)c1cc(OC)c(OC)c(OC)c1)C2=O [15 g, 6-Benzyloxy-7-methoxy-2-(3,4,5-trimethoxybenzoyl)-3,4-dihydroisoquinolin-1(2H)-one] | 77.5 µM | > 100 µM | – | – |
| COc1cc(OC)cc(C(=O)N2CCc3cc(OCc4ccccc4)c(OC)cc3C2)c1 [14 f, 6-Benzyloxy-2-(3,5-dimethoxybenzoyl)-7-methoxy-1,2,3,4-tetra-hydroisoquinoline] | – | 46.8 µM | – | – |
| COc1cc2c(cc1O)CCN(S(=O)(=O)c1ccccc1OC)C2=O [11 a, 6-Hydroxy-7-methoxy-2-((2-methoxyphenyl)sulfonyl)-3,4-dihydroisoquinolin-1(2H)-one] | 13.4 µM | > 100 µM | – | – |
| COc1cccc(C(=O)N2CCc3cc(OS(N)(=O)=O)c(OC)cc3C2=O)c1 [17 b, 2-(3-Methoxybenzoyl)-7-methoxy-6-sulfamoyloxy-3,4-dihydroisoquinolin-1(2H)-one] | 3.5 µM | 5.3 µM | – | – |
| COc1ccc(C(=O)N2CCc3cc(OS(N)(=O)=O)c(OC)cc3C2=O)cc1OC [17 e, 2-(3,4-Dimethoxybenzoyl)-7-methoxy-6-sulfamoyloxy-3,4-dihydroisoquinolin-1(2H)-one] | 2.08 µM | 3.4 µM | – | – |
| COc1cc(OC)cc(C(=O)N2CCc3cc(OS(N)(=O)=O)c(OC)cc3C2)c1 [19 b, 2-(3,5-Dimethoxybenzoyl)-7-methoxy-6-sulfamoyloxy-1,2,3,4-tetrahydroisoquinoline] | – | 9 µM | – | – |
